Source: patent US20210084902A1, “FUNGICIDAL MIXTURE COMPRISING SUBSTITUTED 3-PHENYL-5-(TRIFLUOROMETHYL)-1,2,4-OXADIAZOLES” (BASF SE, priority 2017, published 2021)
Where two headings read alike, the source gives them in different places.

Key:
Type in all cases: cell-based
[1] = system: Colletotrichum orbiculare; test: Fungicidal activity against Colletotrichum orbiculare in the microtiterplate test
Pyricularia oryzae = test: microbe, parasite or virus in culture; settings: for Observed efficacy: single compound
Septoria tritici = test: Fungicidal activity against Septoria tritici, micro titer plate (MTP) test; settings: for inhibition of growth at […] / inhibition of growth at 1 ppm / Observed efficacy / inhibition of growth at 4 ppm: Table V.4, component B alone
Botrytis cinerea = test: Fungicidal activity against Botrytis cinerea, micro titer plate (MTP) test; settings: component B alone; for inhibition of growth at […] / inhibition of growth at 1 ppm: Botrytis cinerea, 168 h, read-out: Observed efficacy
[2] = Pyricularia oryzae, 168 h, read-out: Observed efficacy
[3] = Zymoseptoria tritici, 168 h, 0.016 ppm, read-out: Observed efficacy
[4] = Colletotrichum orbiculare, 0.063 ppm, read-out: Observed efficacy
[5] = Colletotrichum orbiculare, 0.25 ppm, read-out: Observed efficacy
[6] = Zymoseptoria tritici, 168 h, 0.063 ppm, read-out: Observed efficacy
[7] = Zymoseptoria tritici, 168 h, 0.25 ppm, read-out: Observed efficacy
[8] = Zymoseptoria tritici, 168 h, 1 ppm, read-out: Observed efficacy
[9] = Colletotrichum orbiculare, 1 ppm, read-out: Observed efficacy
[10] = Colletotrichum orbiculare, read-out: Observed efficacy
[11] = Zymoseptoria tritici, 168 h, 4 ppm, read-out: Observed efficacy
[12] = Colletotrichum orbiculare, 0.016 ppm, read-out: Observed efficacy

Cn1cc(C(=O)Nc2cccc3c2[C@@H]2CC[C@H]3C2=C(Cl)Cl)c(C(F)F)n1 (racemic) [Benzovindiflupyr, benzovindiflupyr]
Observed efficacy ([1]; 0.004 ppm): 2

Cc1cccc(-n2nnn(C)c2=O)c1COc1ccn(-c2ccc(Cl)cc2)n1 [A.1.25, 1-[2-[[1-(4-chlorophenyl)pyrazol-3-yl]oxymethyl]-3-methyl-phenyl]-4-methyl-tetrazol-5-one]
inhibition of growth at 0.004 ppm (Pyricularia oryzae; [2]): 4% | inhibition of growth at 0.004 ppm (Septoria tritici; Zymoseptoria tritici, 168 h, read-out: Observed efficacy): 3%

COc1ccnc(C(=O)NC2COC(=O)[C@H](Cc3ccccc3)[C@@H](OC(=O)C(C)C)[C@H](C)OC2=O)c1O (stereo partly drawn) [A.2.3, [(6S,7R,8R)-8-benzyl-3-[(3-hydroxy-4-methoxy-pyridine-2-carbonyl)amino]-6-methyl-4,9-dioxo-1,5-dioxonan-7-yl] 2-methylpropanoate]
inhibition of growth at […] (Botrytis cinerea; 0.25 ppm): 0% | inhibition of growth at 1 ppm (Botrytis cinerea; 1 ppm): 11% | inhibition of growth at […] (Septoria tritici; [3]): 52% | inhibition of growth at […] [1, 4]: 47% | inhibition of growth at […] [1, 5]: 77%

CCC(=O)OCOc1c(OC)ccnc1C(=O)NC1COC(=O)[C@H](Cc2ccccc2)[C@@H](OC(=O)C(C)C)[C@H](C)OC1=O (stereo partly drawn) [A.2.5, [(6S,7R,8R)-8-benzyl-3-[[4-methoxy-3-(propanoyloxymethoxy)pyridine-2-carbonyl]amino]-6-methyl-4,9-dioxo-1,5-dioxonan-7-yl] 2-methylpropanoate]
inhibition of growth at 1 ppm (Botrytis cinerea; 1 ppm): 6% | inhibition of growth at […] (Septoria tritici; [6]): 33% | inhibition of growth at […] [1, 5]: 72%

Cc1nn(C)cc1C(=O)Nc1cccc2c1C(C)CC2(C)C (stereo not drawn) [A.3.24, 1,3-dimethyl-N-(1,1,3-trimethylindan-4-yl)pyrazole-4-carboxamide]
inhibition of growth at […] (Botrytis cinerea; 0.25 ppm): 41% | inhibition of growth at […] (Septoria tritici; [7]): 25% | inhibition of growth at 1 ppm (Septoria tritici; [8]): 76% | inhibition of growth at […] [1, 5]: 3% | inhibition of growth at 1 ppm [1, 9]: 12%

CC1CC(C)(C)c2cccc(NC(=O)c3cccnc3C(F)F)c21 (stereo not drawn) [A.3.32, 2-(difluoromethyl)-N-(1,1,3-trimethyl-indan-4-yl)pyridine-3-carboxamide]
inhibition of growth at […] (Botrytis cinerea; 0.25 ppm): 32% | inhibition of growth at […] (Septoria tritici; [7]): 22% | inhibition of growth at 1 ppm (Septoria tritici; [8]): 70% | inhibition of growth at 1 ppm [1, 9]: 15%

CC[C@H]1CC(C)(C)c2cccc(NC(=O)c3cccnc3C(F)F)c21 [A.3.34, 2-(difluoromethyl)-N-[(3S)3-ethyl-1,1-dimethyl-indan-4-yl]pyridine-3-carboxamide]
inhibition of growth at […] (Botrytis cinerea; 0.25 ppm): 1% | inhibition of growth at 1 ppm (Botrytis cinerea; 1 ppm): 51% | inhibition of growth at […] (Septoria tritici; [7]): 17% | inhibition of growth at 1 ppm [1, 9]: 14%

CCCCCCCCc1c(CC)nc2ncnn2c1N [Ametoctradin, ametoctradin]
Observed efficacy (Pyricularia oryzae; 16 ppm): 8 | Observed efficacy (Pyricularia oryzae; 63 ppm): 13 | Observed efficacy ([1]; 63 ppm): 14

CO/C=C(/C(=O)OC)c1ccccc1Oc1cc(Oc2ccccc2C#N)ncn1 [Azoxystrobin, azoxystrobin]
Observed efficacy ([1]; 0.004 ppm): 1

COC(=O)C(C)N(C(=O)Cc1ccccc1)c1c(C)cccc1C (stereo not drawn) [Benalaxyl, benalaxyl]
inhibition of growth at 1 ppm (Pyricularia oryzae; [2]): 2% | inhibition of growth at 4 ppm (Pyricularia oryzae; [2]): 8% | inhibition of growth at 4 ppm [1, 10]: 13%

COC(=O)[C@@H](C)N(C(=O)Cc1ccccc1)c1c(C)cccc1C [Benalaxyl-M, benalaxyl-M]
Observed efficacy (Pyricularia oryzae; 1 ppm): 3 | Observed efficacy (Pyricularia oryzae; 4 ppm): 12 | Observed efficacy (Botrytis cinerea; 4 ppm): 7% | Observed efficacy ([1]; 1 ppm): 2

O=C(Nc1ccccc1-c1ccc(Cl)cc1)c1cccnc1Cl [Boscalid, boscalid]
inhibition of growth at 4 ppm (Pyricularia oryzae; [2]): 5% | inhibition of growth at 1 ppm (Septoria tritici; [8]): 61% | inhibition of growth at […] [1, 5]: 0% | inhibition of growth at 1 ppm [1, 9]: 0%

COC(=O)Nc1nc2ccccc2[nH]1 [Carbendazim, carbendazim]
inhibition of growth at […] [1, 4]: 60%

O=C(Cc1ccccc1)N/C(=N\OCC1CC1)c1c(C(F)(F)F)ccc(F)c1F [Cyflufenamid, cyflufenamid]
inhibition of growth at 16 ppm ([1]; Colletotrichum orbiculare, 16 ppm, read-out: Observed efficacy): 11%

CC(C1CC1)C(O)(Cn1cncn1)c1ccc(Cl)cc1 (stereo not drawn) [Cyproconazol, cyproconazole]
inhibition of growth at 4 ppm [1, 10]: 4%

CNC(=O)/C(=N/OC)c1ccccc1COc1cc(C)ccc1C [Dimoxystrobin, dimoxystrobin]
Observed efficacy (Botrytis cinerea; 1 ppm): 14% | Observed efficacy ([1]; 1 ppm): 71

N#Cc1sc2c(=O)c3ccccc3c(=O)c=2sc1C#N [Dithianon, dithianon]
inhibition of growth at […] [1, 4]: 21%

CC1CC(C)(C)c2c(F)ccc(NC(=O)c3cn(C)nc3C(F)F)c21 (stereo not drawn) [Fluindapyr, 3-(difluoromethyl)-N-(7-fluoro-1,1,3-trimethyl-indan-4-yl)-1-methyl-pyrazole-4-carboxamide]
inhibition of growth at […] (Botrytis cinerea; 0.25 ppm): 21% | inhibition of growth at […] (Septoria tritici; [7]): 21% | inhibition of growth at 1 ppm (Septoria tritici; [8]): 58% | inhibition of growth at 1 ppm [1, 9]: 12%

O=C(NCCc1ncc(C(F)(F)F)cc1Cl)c1ccccc1C(F)(F)F [Fluopyram, fluopyram]
inhibition of growth at […] (Septoria tritici; [6]): 13% | inhibition of growth at […] (Septoria tritici; [7]): 33% | inhibition of growth at […] [1, 5]: 15%

O=c1c2cc(F)ccc2nc(-n2cncn2)n1-c1ccc(Cl)cc1Cl [Fluquinconazol, fluquinconazole]
inhibition of growth at […] [1, 4]: 3% | inhibition of growth at 1 ppm [1, 9]: 12%

Cn1cc(C(=O)Nc2ccccc2-c2cc(F)c(F)c(F)c2)c(C(F)F)n1 [Fluxapyroxad, fluxapyroxad]
Observed efficacy ([1]; 0.004 ppm): 1

CC(C)c1ccc(Cl)cc1CN(C(=O)c1c(C(F)F)nn(C)c1F)C1CC1 [Isoflucypram, N-[(5-chloro-2-isopropyl-phenyl)methyl]-N-cyclopropyl-3-(difluoromethyl)-5 fluoro-1-methyl-pyrazole-4-carboxamide]
inhibition of growth at 1 ppm (Pyricularia oryzae; [2]): 11% | inhibition of growth at […] (Botrytis cinerea; 0.25 ppm): 53% | inhibition of growth at […] (Septoria tritici; [7]): 61% | inhibition of growth at 1 ppm (Septoria tritici; [8]): 62%

CCN(C)C=Nc1cc(C)c(Oc2nc(Cc3ccc(Cl)cc3)ns2)cc1C [K.1.29, N′-[4-[[3-[(4-chorophenyl)methyl]-1,2,4-thiadiazo-5-yl]oxy]-2,5-dimethyl-phenyl]-N-ethyl-N-methyl-formamidine]
Observed efficacy (Septoria tritici; 4 ppm): 6

CCN(C)C=Nc1cc(Br)c(OC2Cc3ccccc3C2)nc1C [K.1.30, N′-(5-bromo-6-indan-2-yloxy-2-methyl-3-pyridyl)-N-ethyl-N-methyl-formamidine]
inhibition of growth at 1 ppm (Septoria tritici; [8]): 0% | inhibition of growth at 4 ppm (Septoria tritici; [11]): 0%

CCN(C)C=Nc1cc(Br)c(OC(C)c2cc(F)cc(F)c2)nc1C (stereo not drawn) [K.1.31, N′-[5-bromo-6-[1-(3,5-difluorophenyl)ethoxy]-2-methyl-3-pyridyl]-N-ethyl-N-methyl-formamidine]
inhibition of growth at 1 ppm (Botrytis cinerea; 1 ppm): 53% | inhibition of growth at 1 ppm (Septoria tritici; [8]): 5% | inhibition of growth at 4 ppm (Septoria tritici; [11]): 62%

CCCCCOC(=O)Nc1cccc(CO/N=C(/c2ccccc2)c2nnnn2C)n1 [K.1.42, pentyl N-[6-[[(Z)-[(1-methyltetrazol-5-yl)-phenyl-methylene]amino]oxymethyl]-2-pyridyl]carba-mate]
Observed efficacy (Pyricularia oryzae; 1 ppm): 9 | Observed efficacy ([1]; 1 ppm): 21

CCCOCC(C)Oc1nc(C)c(N=CN(C)CC)cc1Br (stereo not drawn) [K.1.54, N′-[5-bromo-2-methyl-6-(1-methyl-2-propoxy-ethoxy)-3-pyridyl]-N-ethyl-N-methyl-formamidine]
inhibition of growth at 1 ppm (Pyricularia oryzae; [2]): 19% | inhibition of growth at 1 ppm (Septoria tritici; [8]): 3%

CO/N=C(/C(=O)OC)c1ccccc1COc1ccccc1C [Kresoxim-methyl, kresoxim-methyl]
inhibition of growth at […] [1, 5]: 45%

CO/N=C(/C(=O)OC)c1ccccc1COc1ccccc1C [Kresoximmethyl]
inhibition of growth at 1 ppm (Pyricularia oryzae; [2]): 58% | inhibition of growth at […] (Septoria tritici; [6]): 41%

CC1(C)CCC(Cc2ccc(Cl)cc2)C1(O)Cn1cncn1 (stereo not drawn) [Metconazol, metconazole]
inhibition of growth at […] [1, 4]: 11%

COc1cc(C)c(C(=O)c2c(OC)ccc(Br)c2C)c(OC)c1OC [Metrafenon]
Observed efficacy (Pyricularia oryzae; 4 ppm): 5 | Observed efficacy (Pyricularia oryzae; 16 ppm): 21 | Observed efficacy (Septoria tritici; 4 ppm): 1 | Observed efficacy (Septoria tritici; 16 ppm): 1

COc1cc(C)c(C(=O)c2c(OC)ccc(Br)c2C)c(OC)c1OC [Metrafenone, metrafenone]
inhibition of growth at 4 ppm [1, 10]: 14%

CC(C)CC(C)c1sccc1NC(=O)c1cn(C)nc1C(F)(F)F (stereo not drawn) [Penthiopyrad, penthiopyrad]
inhibition of growth at […] (Septoria tritici; [6]): 5% | inhibition of growth at […] (Septoria tritici; [7]): 28% | inhibition of growth at […] [1, 5]: 8%

CCCC1COC(Cn2cncn2)(c2ccc(Cl)cc2Cl)O1 (stereo not drawn) [Propiconazol, propiconazole]
inhibition of growth at […] (Septoria tritici; [6]): 17% | inhibition of growth at […] [1, 12]: 3% | inhibition of growth at […] [1, 4]: 3% | inhibition of growth at […] [1, 5]: 15%

OC(Cc1ccccc1Cl)(Cn1nc[nH]c1=S)C1(Cl)CC1 (stereo not drawn) [Prothioconazol, prothioconazole]
inhibition of growth at […] [1, 5]: 14%

COc1cc(C)c(C(=O)c2c(OC)ncc(Cl)c2C)c(OC)c1OC [Pyriofenon, pyriofenone]
Observed efficacy (Botrytis cinerea; 1 ppm): 2%

CC(C)(C)C(O)(CCc1ccc(Cl)cc1)Cn1cncn1 (stereo not drawn) [Tebuconazol, tebuconazole]
inhibition of growth at 0.0663 ppm (Pyricularia oryzae; [2]): 4% | inhibition of growth at […] [1, 4]: 2% | inhibition of growth at […] [1, 5]: 14%

CON=C(C(=O)OC)c1ccccc1CON=C(C)c1cccc(C(F)(F)F)c1 [Trifloxystrobin, trifloxystrobin]
inhibition of growth at […] (Botrytis cinerea; 0.063 ppm): 3% | inhibition of growth at […] (Septoria tritici; [3]): 43% | inhibition of growth at […] [1, 12]: 9%

CC1(C)CCC(=Cc2ccc(Cl)cc2)C1(O)Cn1cncn1 (stereo not drawn) [Triticonazol, triticonazole]
inhibition of growth at 1 ppm [1, 9]: 11%

mancozeb
Observed efficacy (Septoria tritici; 1 ppm): 9 | Observed efficacy ([1]; 1 ppm): 24
